Patent US10106554B2, “7-(morpholinyl)-2-(N-piperazinyl) methyl thieno [2, 3-C] pyridine derivatives as anticancer drugs” (NATCO PHARMA LIMITED, priority 2014, dated 2018)

Assays:
[1] = system: NCI-H292 induced tumor (Erlotinib resistant lung cancer); test: Antagonism of NCI-H292 induced tumor in nude mice (histopathology); assay type: in vivo; details: 50 mg/kg for 15 days; histopathology (4/5); positive control tumor present in all 5 animals
Experimental: The study was carried out with 15 Nude Mice (8 Male+7 Female).Weighing of Nude Mice were taken initially before inoculation of cell line and made into groups. Grouping as follows:
Group I: Positive control (4 Male+1 Female)
The cell line was inoculated to Nude Mice subcutaneously to the right hind limb flank at a strength of 6.25×10^5 cells/0.2 ml. […] The tumor volume was measured using the formula […] (l=length of tumor & w=width of tumor).When the mean tumor volume was recorded above 400 mm^3, the treatment with the above drugs will be started. […] Weight of Nude Mice Was taken daily before dosing and tumor measurement was done on alternative days using digital Vernier caliper. […] Mice dead during experimental schedule, the tumor with skin and liver were collected and stored in 10% buffered formalin .All the organs after collection were sent for histopathology.

MIAPaca-2 induced tumor = test: Antagonism of MIAPaca-2 induced tumor in nude mice; assay type: in vivo; details: for mean tumor area: p.o daily for 30 days, control 33.13 mm^2
Experimental: This study was carried out with 20 Male Nude Mice. Weighing of Nude Mice were taken initially before inoculation of cell line and made into four groups.
Group-I: Positive control (5 Male)
Group-II: COMPOUND 2 (5 Male) (200 mg/kg, p.o)
Group-III: COMPOUND 1 (5 Male) (50 mg/kg, p.o)
Group-IV: Standard (5 Male) (Erlotinib hydrochloride—50 mg/kg, p.o & Gemcitabine hydrochloride—120 mg/kg, i.p.)
The cell line was inoculated to Nude Mice subcutaneously to the right hind limb flank at a strength of 1×10^7 cells/0.2 ml. […] The tumor volume was measured using the formula ½1×w^2 (l=length of tumor & w=width of tumor). When the mean tumor volume was recorded above 400 mm^3, the treatment with the above drugs were started. The above drugs were administered orally daily for 30 days, except Gemcitabine hydrochloride was administered on 1st and 3rd day of each week. Weight of Nude Mice was taken daily before dosing and tumor measurement was done on alternative days using digital Vernier caliper. Surviving animals were sacrificed after the dosing is complete for 30 days and organs (tumor with skin and pancreas) were collected.
Mice dead during experimental schedule, the tumor with skin and pancreas were collected and tumor with skin was stored in 10% buffered formalin and pancreas were stored in Bouin's solution. All the organs after collection were sent for histopathology.

[2] = MTD (Maximum Tolerated Dose) study in mice, OECD procedure; details: both sexes, mouse, in vivo, oral; p.o, single dose, 14 days observation, Swiss Albino mice
Experimental: The method was carried out as per OECD procedure. The study was carried out using 5 (2 Male+3 Female) Swiss Albino Mice weighing between 18-30 gms. All the animals were fasted for 3 hrs prior to the oral administration of the drug. After preparing the sample administer immediately to their body all the animals according weight. […] At the end of 14 days all the surviving animals were autopsied and stomach were cut opened and observed for absorption of the drug through the GIT. The result is given in FIG. 1. • COMPOUND 2: MTD>2000 mg.kg, p.o (Single dose 14 days observation) • COMPOUND 1: MTD=500 mg/kg, p.o (Single dose 14 days observation) b. Antagonism of MIAPaca—2 Induced Tumor in Nude Mice: […]

[3] = 200 mg/kg, p.o, 5 mice, control 40%

SMILES	clearance of tumor, animals [1] [%]	mean tumor area (MIAPaca-2 induced tumor; 50 mg/kg) [mm^2]	remaining tumors showing no much activity (no invasion) (MIAPaca-2 induced tumor; 50 mg/kg, p.o, 5 mice) [%]	tumors showing invasion into underlying muscle (MIAPaca-2 induced tumor; 50 mg/kg, p.o, 5 mice) [%]	MTD at 14 days [2] [mg/kg]	mean tumor area (MIAPaca-2 induced tumor; 200 mg/kg) [mm^2]	tumors localized, no tumor invasion seen (MIAPaca-2 induced tumor; [3]) [%]	tumors showing vascular invasion (MIAPaca-2 induced tumor; [3]) [%]
Cc1c(CN2CCN(S(C)(=O)=O)CC2)sc2c(N3CCOCC3)nc(-c3cnc(N)nc3)cc12 [COMPOUND 1, 5-[3-methyl-2-[(4-methylsulfonylpiperazin-1-yl)methyl]-7-morpholino-thieno[2,3-c]pyridin-5-yl]pyrimidin-2-amine]	80	8.60	80	20	500	–	–	–
CS(=O)(=O)N1CCN(Cc2cc3cc(-c4cnc(N)nc4)nc(N4CCOCC4)c3s2)CC1 [COMPOUND 2, 5-[2-[(4-methylsulfonylpiperazin-1-yl)methyl]-7-morpholino-thieno[2,3-c]pyridin-5-yl]pyrimidin-2-amine]	–	–	–	–	> 2000	10.90	60	40
